Data from patent US20210252011A1, “TREATMENT OF GLIOBLASTOMA WITH FASN INHIBITORS” (FORMA Therapeutics, Inc., priority 2017, published 2021).

Tests used:
[1] = Determination of brain exposure in Balb/c nude mice following oral administration; assay type: in vivo; details: 5 mg/kg oral gavage; for Brain (μM) at 2 h / Plasma (μM) at 2 h / [Brain]/[Plasma] at 2 h: 2 h post dose; for Brain (μM) at 8 h / Plasma (μM) at 8 h / [Brain]/[Plasma] at 8 h: 8 h post dose; for Brain (μM) at 2, 8 h (single value) / Plasma (μM) at 2, 8 h (single value) / Kp: one value given, time point (2 or 8 h) not stated; for Kp: mouse, brain/plasma, read-out: [Brain]/[Plasma] at 2, 8 h (single value)
Method: Balb/c nude mice (body weight: 20-30 g; age range: approximately 6-8 weeks) were purchased from a qualified provider and acclimated for 5-7 days. The dosing formulation (dose: 5 mg/kg; concentration: 0.5 mg/mL; vehicle: PEG400:ethanol (v/v 9:1)) was prepared on the day of dosing and administered via oral gavage (dose volume: 10 mL/kg) to the mice (n=3 animals per time point). At the desired time point (2 or 8 h post dose) approximately 0.03 mL of blood sample was collected via venipuncture of peripheral veins into Heparin Na tubes and immediately placed on ice. After gently reverting the tube for approximately 10 seconds, the blood sample was centrifuged at 4,000×g for 5 minutes at 4° C. Supernatant was transferred into a micro-centrifuge tube and kept in a −80° C. freezer. Prior to brain collection, mice were fully exsanguinated via the following procedure: the chest cavity was opened, the ventricle was cut and a gentle iv saline flush (saline flush volume ˜20 mL) was performed with the animal placed head down at a 45 degree angle to facilitate blood removal. Brain samples were collected at the desired time point (2 or 8 h post dose), quick frozen in an ice box, and kept at −75±15° C. All brain samples were weighed and homogenated with buffer (brain weight (g) to PBS volume (mL) ratio of 1:4) before analysis. The actual concentration is the detected value multiplied by the dilution factor. For plasma sample analysis, plasma samples were quantified against a standard curve in plasma of Balb/c nude mice using an LC-MS/MS Method. For brain sample analysis, brain samples were quantified against a standard curve in brain homogenate of Balb/c nude mice using an LC-MS/MS Method. Each standard curve covered at least 6 calibration points including lower limit of quantification (LLOQ).

FASN enzyme = target: T1, FASN enzyme (Homo sapiens, UniProt P49327); test: Enzymatic assay for FASN inhibitors; assay type: biochemical; details: 40 nM FASN enzyme, 25° C.
T1 construct: incubated with 10 μL of 40 nM FASN enzyme in assay buffer
T1 sequence (P49327 whole entry): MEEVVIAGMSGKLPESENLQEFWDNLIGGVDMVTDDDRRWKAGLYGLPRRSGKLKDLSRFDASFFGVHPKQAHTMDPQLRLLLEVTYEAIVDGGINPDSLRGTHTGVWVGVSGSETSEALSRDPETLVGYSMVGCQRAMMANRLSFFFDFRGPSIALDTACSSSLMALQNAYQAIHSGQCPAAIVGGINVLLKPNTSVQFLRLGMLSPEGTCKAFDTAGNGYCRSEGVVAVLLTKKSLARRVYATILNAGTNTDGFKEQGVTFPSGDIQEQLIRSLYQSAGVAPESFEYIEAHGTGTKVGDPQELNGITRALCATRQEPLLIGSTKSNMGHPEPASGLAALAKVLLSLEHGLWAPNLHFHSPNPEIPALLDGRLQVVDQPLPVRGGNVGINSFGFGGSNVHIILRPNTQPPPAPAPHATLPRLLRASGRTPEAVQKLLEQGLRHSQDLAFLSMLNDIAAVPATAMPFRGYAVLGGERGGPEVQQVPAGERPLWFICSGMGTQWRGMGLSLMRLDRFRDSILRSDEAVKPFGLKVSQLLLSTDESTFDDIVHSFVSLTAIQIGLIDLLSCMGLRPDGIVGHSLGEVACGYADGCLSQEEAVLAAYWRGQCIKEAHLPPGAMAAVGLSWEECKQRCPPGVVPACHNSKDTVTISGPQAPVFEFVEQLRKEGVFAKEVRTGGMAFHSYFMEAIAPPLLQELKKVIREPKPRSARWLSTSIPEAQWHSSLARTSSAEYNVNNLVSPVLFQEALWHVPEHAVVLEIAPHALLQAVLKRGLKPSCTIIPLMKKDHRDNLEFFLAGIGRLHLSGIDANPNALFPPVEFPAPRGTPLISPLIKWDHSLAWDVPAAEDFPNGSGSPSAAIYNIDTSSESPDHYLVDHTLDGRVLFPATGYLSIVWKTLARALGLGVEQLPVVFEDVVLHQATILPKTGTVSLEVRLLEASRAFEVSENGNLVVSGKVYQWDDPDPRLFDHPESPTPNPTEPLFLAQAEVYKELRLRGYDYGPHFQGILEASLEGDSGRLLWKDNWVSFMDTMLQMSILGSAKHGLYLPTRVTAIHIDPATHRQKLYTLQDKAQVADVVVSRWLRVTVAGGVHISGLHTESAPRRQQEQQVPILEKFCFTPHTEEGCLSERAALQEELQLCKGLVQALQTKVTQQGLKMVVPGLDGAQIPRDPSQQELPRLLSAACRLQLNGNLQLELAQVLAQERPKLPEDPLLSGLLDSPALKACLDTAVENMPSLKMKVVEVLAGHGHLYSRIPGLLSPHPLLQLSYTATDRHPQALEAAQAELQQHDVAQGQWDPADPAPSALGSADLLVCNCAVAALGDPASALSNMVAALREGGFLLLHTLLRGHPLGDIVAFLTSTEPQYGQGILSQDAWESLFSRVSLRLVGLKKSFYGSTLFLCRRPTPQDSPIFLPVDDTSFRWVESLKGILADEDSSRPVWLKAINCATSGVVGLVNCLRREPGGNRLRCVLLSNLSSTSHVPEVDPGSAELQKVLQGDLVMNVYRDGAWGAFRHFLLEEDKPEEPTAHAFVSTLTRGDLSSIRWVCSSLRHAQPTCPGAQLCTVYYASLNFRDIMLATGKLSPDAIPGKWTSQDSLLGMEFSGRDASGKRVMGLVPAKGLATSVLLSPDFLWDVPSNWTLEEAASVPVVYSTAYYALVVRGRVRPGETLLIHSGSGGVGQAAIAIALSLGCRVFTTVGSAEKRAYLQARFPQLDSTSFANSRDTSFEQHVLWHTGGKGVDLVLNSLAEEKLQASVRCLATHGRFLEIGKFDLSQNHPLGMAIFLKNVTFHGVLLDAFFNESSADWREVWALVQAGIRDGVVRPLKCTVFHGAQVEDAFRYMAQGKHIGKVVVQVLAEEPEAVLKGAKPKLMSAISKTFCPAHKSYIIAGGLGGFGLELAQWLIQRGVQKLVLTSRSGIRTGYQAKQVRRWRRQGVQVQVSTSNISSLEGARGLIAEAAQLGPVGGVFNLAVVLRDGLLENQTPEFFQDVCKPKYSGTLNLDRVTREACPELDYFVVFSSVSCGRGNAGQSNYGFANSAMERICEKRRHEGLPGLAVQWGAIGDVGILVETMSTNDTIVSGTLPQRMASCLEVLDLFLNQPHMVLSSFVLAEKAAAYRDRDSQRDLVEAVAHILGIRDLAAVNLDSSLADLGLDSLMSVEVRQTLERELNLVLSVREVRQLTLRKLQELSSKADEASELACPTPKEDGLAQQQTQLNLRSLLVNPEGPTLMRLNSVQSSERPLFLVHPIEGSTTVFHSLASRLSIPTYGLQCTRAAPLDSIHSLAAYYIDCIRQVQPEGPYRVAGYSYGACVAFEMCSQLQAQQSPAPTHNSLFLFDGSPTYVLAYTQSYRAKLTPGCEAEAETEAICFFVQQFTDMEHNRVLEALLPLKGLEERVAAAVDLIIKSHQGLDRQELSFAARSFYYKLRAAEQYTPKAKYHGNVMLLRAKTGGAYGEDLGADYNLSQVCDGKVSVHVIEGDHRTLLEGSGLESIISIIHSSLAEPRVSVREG
Method: Assays were performed in a 384-well black plate to measure the inhibition of FASN activity by individual compounds disclosed herein. An aliquot of 250 nL of compound was incubated with 10 μL of 40 nM FASN enzyme in assay buffer (50 mM HEPES (pH=7.3), 0.5 mM EDTA, 1 mM ascorbate, 100 mM sodium chloride and 0.04% TritonX-100) in each well at 25° C. for 60 minutes. After the plate was centrifuged briefly, 10 μL of substrate mix (20 μM acetyl-CoA, 60 μM malonyl-CoA, and 100 μM NADPH in assay buffer) was added to each well. The reaction was maintained at 25° C. for 90 minutes. The reaction was then quenched by adding 10 μL of 90 μM 7-diethylamino-3-(4′-maleimidylpheynyl)-4-methylcoumarin in 50/50 ethanol/water solution. The assay plate was incubated at 25° C. for 15 minutes and read on a plate reader with excitation and emission wavelengths at 360 nm and 530 nm, respectively. The IC50 of a given compound was calculated by fitting the dose response curve with a four-parameter logistic equation. Data shown below in Table B, where compounds having an activity designated as “A” provided an IC50<100 nm and compounds having an activity designated as “B” provided an IC50 of 100 nm-1.00 μM.

Row | SMILES | Brain (μM) at 2 h [1] [µM] | Plasma (μM) at 2 h [1] [µM] | [Brain]/[Plasma] at 2 h [1] | Brain (μM) at 8 h [1] [µM] | Plasma (μM) at 8 h [1] [µM] | [Brain]/[Plasma] at 8 h [1] | IC50 (FASN enzyme) [nM] | Brain (μM) at 2, 8 h (single value) [1] [µM] | Plasma (μM) at 2, 8 h (single value) [1] [µM] | Kp [1]
1 | C[C@H]1CN(C(=O)c2ccc(-c3nc4ccc(F)cc4o3)cc2)CCN1C(=O)C1(O)CC1 [Compound 1] | 1.3 | 7.3 | 0.18 | 0.40 | 2.1 | 0.20 | 100 to 1000 |  |  | 
2 | C[C@@H]1CN(C(=O)c2ccc(-c3nc4ccc(F)cc4o3)cc2)C[C@H](C)N1C(=O)C1(O)CC1 [Compound 2] | 0.3 | 1.4 | 0.20 | 0.01 | 0.06 | 0.21 | < 100 |  |  | 
3 | O=C(c1ccc(-c2nc3ccc(F)cc3o2)cc1)N1CCN(C(=O)C2(O)CC2)CC1 [Compound 3] | 1.8 | 7.8 | 0.23 | 0.89 | 3.3 | 0.27 | 100 to 1000 |  |  | 
4 | C[C@H]1CN(C(=O)c2ccc(-c3nc4ccc(F)cc4o3)cc2F)CCN1C(=O)C1(O)CC1 [Compound 4] | 1.6 | 10.6 | 0.15 | 0.17 | 1.1 | 0.16 | < 100 |  |  | 
5 | O=C(c1ccc(-c2nc3ccc(F)cc3o2)cc1F)N1CCN(C(=O)C2(O)CC2)CC1 [Compound 5] | 1.4 | 8.4 | 0.17 | 0.62 | 3.3 | 0.19 | 100 to 1000 |  |  | 
6 | O=C(c1ccc(-c2nc3ccc(F)cc3o2)cc1F)N1CCN(C(=O)[C@H]2CCCO2)CC1 [Compound 6] |  |  |  |  |  |  | 100 to 1000 | 0.042 | 0.396 | 0.105
7 | C[C@H]1CN(C(=O)c2ccc(-c3nc4ccc(F)cc4o3)cc2F)CCN1C(=O)C1(N)CC1 [Compound 7] |  |  |  |  |  |  | 100 to 1000 | 0.013 | 0.238 | 0.05
8 | C[C@@H]1CN(C(=O)c2ccc(-c3nc4ccc(F)cc4o3)cc2)C[C@H](C)N1C(=O)C1(N)CC1 [Compound 8] |  |  |  |  |  |  | 100 to 1000 | 0.038 | 0.309 | 0.12
9 | Cn1cnc2cc(-c3ccc(C(=O)N4CCN(C(=O)C5(O)CC5)CC4)c(F)c3)ccc21 [Compound 9] | 0.03 | 5.2 | 0.006 | 0.007 | 0.6 | 0.012 | < 100 |  |  | 
10 | C[C@H]1CN(C(=O)c2ccc(-c3ccc4c(c3)ncn4C)cc2F)CCN1C(=O)C1(O)CC1 [Compound 10] | 0.04 | 4.4 | 0.007 | 0.004 | 1.0 | 0.004 | < 100 |  |  | 
11 | C[C@H]1CN(C(=O)c2ccc(-c3ccc4c(c3)ncn4C)cc2)CCN1C(=O)C1(O)CC1 [Compound 11] | 0.02 | 4.4 | 0.005 | 0.0 | 0.6 | 0.000 | < 100 |  |  | 
12 | Cn1cnc2cc(-c3ccc(C(=O)N4CCN(C(=O)C5(O)CC5)CC4)cc3)ccc21 [Compound 12] | 0.02 | 1.5 | 0.014 | 0.0 | 0.2 | 0.000 | 100 to 1000 |  |  | 
13 | Cn1cc(-c2ccc(-c3ccc(C(=O)N4CCN(C(=O)C5(O)CC5)CC4)cc3)cc2)cn1 [Compound 13] | 0.28 | 5.8 | 0.05 | 0.12 | 3.1 | 0.04 | < 100 |  |  | 
